This note sets out measurements from ChEMBL document CHEMBL4715760, “Balancing potency, metabolic stability and permeability in pyrrolopyrimidine-based EGFR inhibitors” (Eur J Med Chem, 2016).

One data set relates to A-431. The data set is described as follows: Antiproliferative activity against human A431 cells assessed as inhibition of cell growth incubated for 72 hrs by Cell Titer Glo luminescent cell viability assay. Type of data set: functional, cell-based. The note with it: A-431, 72 h.
Data set [1] is described as follows: Metabolic stability in pooled human liver microsomes assessed as half life at 3 uM measured up to 45 mins in presence of NADPH by LC-MS/MS analysis. To be noted: pooled liver microsomes. Type of data set: ADME, Microsome.

As a reminder, the IC50 is the concentration needed to halve the response being measured. With `COc1ccccc1-c1cc2c(N[C@H](CO)c3ccccc3)ncnc2[nH]1`, the IC50 in the data set with A-431 is 400 nM. Usually half-life stands for the time needed for the level to fall by half in the phase considered. In the case of `C#Cc1cccc(Nc2ncnc3cc(OCCOC)c(OCCOC)cc23)c1` [ERLOTINIB], the half-life at 3 µM in data set [1] amounted to 31.7 min.
